Measured values as given in patent USRE36187E, “Acyclic pyrrolo [2,3-d]pyrimidine analogs as antiviral agents” (The Regents of the University of Michigan, priority 1994, dated 1999).

Tests used:
[1] = system: HCMV; experiment: HCMV titer (yield) reduction assay in HFF cells; format: cell-based, human cytomegalovirus (Towne strain); details: for HCMV titer reduction activity: in words, FIG. 2 or FIG. 3; for HCMV titer reduction, fold better than acyclovir: FIG. 1
From the text: (§1) The 148 strain of HSV-1 was used in most experiments and was provided by Dr. T. W. Schafer of Schering Corporation. The HF strain of HSV-1 was used in selected experiments and was obtained from Dr. G. H. Cohen, University of Pennsylvania. The Towne strain, plaque-purified isolate Po, of HCMV was a gift of Dr. Mark Stinski, University of Iowa.
(§2) HCMV was titered in 24-well cluster dishes which were planted to contain 5×10^4 HFF cells/well, grown as described above. When the cells were 70 to 80% confluent, 0.2 ml of the virus suspension was added per wall and adsorbed as described above. At least three ten-fold dilutions of each preparation were used. Following virus adsorption, the cell sheets were overlayed with 0.5% methocel (4000 CPS) in maintenance medium [(MEM) with 1.1 gm/liter NaHCO3, 100 units/ml penicillin G, 100 μg/ml streptomycin, and 5% fetal bovine serum]. The cultures were incubated in a humidified atmosphere of 4% CO2 -96% air. Viral foci were visible 5 to 7 days after infection using at least 10-fold magnification. Cells were fixed and stained by a 10-minute exposure to a 0.1% solution of crystal violet in 20% methanol 7 to 12 days after infection. Microscopic foci were enumerated at 20-fold magnification using a Nikon Profile Projector.
For titer reduction assays, HFF cells were planted as described above in 24-well cluster dishes or in 25 cm^2 flasks. When monolayers were approximately 70% confluent, HCMV was added at a m.o.i. of 0.5 p.f.u. per cell and adsorbed as detailed above. Compounds dissolved in growth medium were added in one or one-half logarithm 10 dilutions and incubation continued at 37° C. After 7 to 10 days of incubation, culture dishes or flasks were frozen at […] For titer determination, cells were thawed and then subjected to two more cycles of freezing and thawing at 37° C. Serial, one-logarithm10 dilutions of the final suspension were prepared and inoculated onto new cultures of HFF cells. Titer determination was as detailed above in part (1) (b).
(§3) Dose-response relationships were used to compare drug effects. These were constructed by linearly regressing the percent inhibition of parameters derived in the preceding sections against log drug concentrations. The 50% inhibitory (I50) concentrations were calculated from the regression lines using the methods described by Goldstein. See Goldstein, A., Biostatistics: An Introductory Text, MacMillan, N.Y., 1964, pp. 156-161. Along with the I50 concentration for visual cytotoxicity, the averaged I50 concentrations are compared to I50 concentrations for inhibition for HCMV or HSV-1 replication. Compounds for which the ratio of cytotoxicity I50 concentrations to antiviral I50 concentrations (in vitro therapeutic index) were greater than 10, were considered for further study.

[2] = previously reported; cited from earlier work
[3] = system: HFF cells; experiment: Growth of human diploid fibroblasts (HFF cells); format: cell-based; details: for population doubling of HFF cells: 100 μM, control cells underwent two doublings
Experimental: (§4) Population doubling times and cell viability were measured in uninfected HFF and/or KB cells. Cells were planted in replicate 6-well plastic tissue culture dishes or in 25 cm^2 flasks as described above in part 1. Following an incubation period during which cells attached to the substrate, medium was decanted, the cell sheet rinsed once with HBS, and fresh medium added. The medium consisted of MEM(E) with 1.1 gm NaHCO3 /liter and 10% fetal bovine or calf serum plus appropriate log or half-log concentrations of drug. After additional periods of incubation from 1 to 72 hours at 37° C., cells were harvested by means of 0.05% trypsin plus 0.02% EDTA in a HEPES-buffered salt solution. Cells were enumerated using either a Coulter counter or a hemocytometer and viability determining using […] dye exclusion.
The effect of these compounds on the growth of human diploid fibroblasts (HFF cells) was less pronounced. During a 70-hour incubation, control cells underwent two doublings. […] A 100 μM concentration reduced the number of cells by less than 10%.

[4] = system: HCMV; experiment: HCMV plaque (focus) reduction assay in HFF cells; format: cell-based, human cytomegalovirus (Towne strain); details: in words
Experimental: as §1
Stock HCMV was prepared by infecting HFF cells at a multiplicity of infection (m.o.i.) of less than 0.01 plaque-forming units (p.f.u.) per cell. Cell growth medium was changed every four days until cytopathology was evident in all cells (approximately 21 days). Supernatant fluids were retained as the virus stock. Four days later, the remaining cells were disrupted by three cycles of freeze-thawing and the cell plus medium held as an additional source of virus. Storage was in liquid nitrogen.
as §2
The effect of compounds of the replication of HCMV has been measured using both a plaque (focus) reduction assay and a titer (yield) reduction assay. For the former, HFF cells in 24-well culture dishes were infected with approximately 50 p.f.u. of HCMV per well using the procedures detailed above. Compounds dissolved in growth medium were added in three to six selected concentrations to triplicate wells following virus adsorption. Following incubation at 37° C. for 7 to 10 days, cell sheets were fixed, stained and microscopic foci were enumerated as described above. Drug effects were calculated as a percentage of reduction in number of foci in the presence of each drug concentration compared to the number observed in the absence of drug. DHPG (ganciclovir) was used as a positive control in all experiments.
as §3

[5] = system: KB cells; experiment: Growth of KB cells (population doubling); format: cell-based, human
Experimental: as §4
In more extensive cytotoxicity testing, the halogenated compounds were tested for effects on the growth of KB cells. Populations doubling times were calculated from the logarithmic portions of growth curves and were as follows: […]

[6] = system: MCMV; experiment: Mortality of mice infected with murine cytomegalovirus; format: in vivo
Experimental: Compound UMJD 183 was tested in mice infected with murine cytomegalovirus (MCMV). This animal model has been recognized as having capabilities predictive of efficacy in humans.
(§5) Compound UMJD 183 and the drug ganciclovir (DHPG) were administered to groups of 15 mice each at doses and times of administration shown in Table 3. Each compound at all doses was administered intraperitoneally twice daily for five days beginning at either 6, 24 or 48 hours after virus inoculation. Animals were observed daily and the number dying each day recorded.
^a Animlas were treated i.p. twice daily for 5 days with the doses
stated above. Treatment was initiated at the times indicated following

[7] = Drug toxicity control in uninfected mice; format: in vivo
Experimental: as §5
Even when the compound was administered 48 hours after virus infection, compound UMJD 183 reduced mortality from 80-93% in controls to 40% in the presence of 5.6 mg/kg of the drug. When UMJD 183 was administered sooner, 6 or 24 hours after virus infection, mortality was reduced further to 7 or 20%, respectively.
^d Drug toxicity control. No virus administered.

[8] = 1.9 mg/kg i.p. twice daily, from 6 h
[9] = 1.9 mg/kg i.p. twice daily, from 24 h
[10] = 1.9 mg/kg i.p. twice daily, from 48 h
[11] = 5.6 mg/kg i.p. twice daily, from 6 h
[12] = 5.6 mg/kg i.p. twice daily, from 24 h
[13] = 5.6 mg/kg i.p. twice daily, from 48 h
[14] = 16.7 mg/kg i.p. twice daily, from 6 h
[15] = 16.7 mg/kg i.p. twice daily, from 24 h
[16] = 16.7 mg/kg i.p. twice daily, from 48 h
[17] = 50 mg/kg i.p. twice daily, from 6 h
[18] = 50 mg/kg i.p. twice daily, from 24 h
[19] = 50 mg/kg i.p. twice daily, from 48 h

## OCC(CO)OCn1cc(I)c2c(NO)ncnc21 [UMJD 329, 4-hydroxylamino-5-iodo-7-[(1,3-dihydroxy-2-propoxy)methyl]pyrrolo[2,3-d]pyrimidine]
[1]
  HCMV titer reduction activity: active and nearly as potent as the 4-amino analogs

## Nc1ncnc2c1ccn2[C@@H]1O[C@H](CO)[C@@H](O)[C@H]1O [tubercidin]
[2]
  broad spectrum antiviral activity: Broad spectrum antiviral activity

## Nc1ncnc2c1c(I)cn2COCCO [UMJD 104, 4-Amino-5-iodo-7-(2-hydroxyethoxymethyl)pyrrolo[2,3-d]-pyrimidine]
[3]; 70 hours
  population doubling of HFF cells: one population doubling
[3]; in words
  effect on growth of HFF cells: more pronounced
[4]
  activity against HCMV: active against HCMV
[1]
  HCMV titer reduction, fold better than acyclovir: approximately 10 fold

## Nc1ncnc2c1c(Br)cn2COCCO [UMJD 102, 4Amino-5-bromo-7-(2-hydroxyethoxymethyl)pyrrolo[2,3-d]-pyrimidine]
[3]; 70 hours
  population doubling of HFF cells: one population doubling
[3]; in words
  effect on growth of HFF cells: more pronounced
[4]
  activity against HCMV: active against HCMV
[5]; in words
  cytostatic effect: cytostatic
[1]
  HCMV titer reduction, fold better than acyclovir: approximately 10 fold

## NC(=O)c1cn([C@@H]2O[C@H](CO)[C@@H](O)[C@H]2O)c2ncnc(N)c12 [sangivamycin]
[2]
  broad spectrum antiviral activity: Broad spectrum antiviral activity

## OCC(CO)OCn1cc(Br)c2c(NO)ncnc21 [UMJD 299, 4-hydroxylamino-5-bromo-7-[(1,3-dihydroxy-2-propoxy)methyl]pyrrolo[2,3-d]pyrimidine]
[1]
  HCMV titer reduction activity: active and nearly as potent as the 4-amino analogs

## OCC(CO)OCn1cc(Cl)c2c(NO)ncnc21 [UMJD 328, 4-hydroxylamino-5-chloro-7-[(1,3-dihydroxy-2-propoxy)methyl]pyrrolo[2,3-d]pyrimidine]
[1]
  HCMV titer reduction activity: active and nearly as potent as the 4-amino analogs

## N#Cc1cn([C@@H]2O[C@H](CO)[C@@H](O)[C@H]2O)c2ncnc(N)c12 [toyocamycin]
[2]
  broad spectrum antiviral activity: Broad spectrum antiviral activity

## Nc1ncnc2c1c(Cl)cn2COCCO [UMJD 100, 4-Amino-5-chloro-7-(2-hydroxyethoxymethyl)pyrrolo[2,3-d]-pyrimidine]
[3]; 10 or 32 μM, 70 hours, in words
  decrease in number of HFF cells: no decrease in the number of cells
[4]
  activity against HCMV: active against HCMV
[5]; 100 μM, in words
  effect on KB cell growth: affected KB cell growth to only a minor extent

## Nc1ncnc2c1c(Br)cn2COC(CO)CO [UMJD 183, 4-amino-5-bromo-7-[(1,3-dihydroxy-2-propoxy)methyl]-pyrrolo[2,3-d]pyrimidine]
[6]; [8]
  MDD (Mean Day of Death): 6.2
  Mortality Percent: 33%
[6]; [9]
  MDD (Mean Day of Death): 4.8
  Mortality Percent: 60%
[6]; [10]
  MDD (Mean Day of Death): 4.8
  Mortality Percent: 67%
[6]; [11]
  MDD (Mean Day of Death): 8.0
  Mortality Percent: 7%
[6]; [12]
  MDD (Mean Day of Death): 6.3
  Mortality Percent: 20%
[6]; [13]
  MDD (Mean Day of Death): 5.5
  Mortality Percent: 40%
[6]; 5.6 mg/kg i.p., in words
  increase in number of animals surviving: highly significant increases in the number of animals surviving the virus infection
[6]; [14]
  MDD (Mean Day of Death): 8.7
  Mortality Percent: 60%
[6]; [15]
  MDD (Mean Day of Death): 7.1
  Mortality Percent: 80%
[6]; [16]
  MDD (Mean Day of Death): 8.4
  Mortality Percent: 87%
[6]; [17]
  MDD (Mean Day of Death): 10.8
  Mortality Percent: 60%
[6]; [18]
  MDD (Mean Day of Death): 8.8
  Mortality Percent: 93%
[6]; [19]
  MDD (Mean Day of Death): 7.5
  Mortality Percent: 97%
[6]; all doses, i.p.
  effect on life span (mean day of death): prolonged life span (increased the mean day of death) at all doses
[5]; KB cells
  time of KB cell growth in the presence of the drug before slowing or stopping: up to 20 hours
[5]; in words
  effect on growth of KB cells: growth of KB cells also was inhibited, but to a lesser extent
[5]; up to 32 μM, 50 hours
  growth in the presence of up to 32 μM drug: at a reduced rate
[1]
  HCMV titer reduction activity: most active
[7]; 16.7 mg/kg, no virus
  MDD (Mean Day of Death), Toxicity: 5.0
[7]; all doses together, i.p.
  deaths in uninfected animals: 1 death in 60 animals
[7]; in words, i.p.
  toxicity in uninfected animals: virtually no toxicity

## NC(=S)c1cn(COCCO)c2ncnc(N)c12 [UMJD 229, 4-Amino-7-(2-hydroxyethoxymethyl)pyrrolo[2,3-d]pyrimidine-5-thiocarboxamide]
[4]
  activity against HCMV: active against HCMV
